Reference: article PMC11858653, “Design, Synthesis and Bioactive Evaluation of Topo I/c-MYC Dual Inhibitors to Inhibit Oral Cancer via Regulating the PI3K/AKT/NF-κB Signaling Pathway” (Molecules, 2025)
“And” between values parts separate entries of the source, which are not always exact repeats. Equal entries are not always repeated.

Assays:
NCI-H460 = assay: MTT antiproliferative assay, NCI-H460; assay type: cell-based, human; details: Homo sapiens, NCI-H460, 48 h, mean ± SD
A549 = assay: MTT antiproliferative assay, A549; assay type: cell-based, human; details: Homo sapiens, A549, 48 h, mean ± SD
Cal27 = assay: MTT antiproliferative assay, Cal27; assay type: cell-based, human; details: Homo sapiens, CAL-27, 48 h, mean ± SD
SV-HUC-1 = assay: MTT assay, normal cell line SV-HUC-1; assay type: cell-based; details: SV-HUC1, 48 h, mean ± SD
Procedure: Having evaluated their Topo I inhibitory activity, the antiproliferative activity of the target compounds against some common human cancer cell lines (NCI-H460, A549, ACHN, Cal27 and MGC-803) and one normal cell line (SV-HUC-1) was tested via an MTT assay. TPT, the first Topo I inhibitor approved in clinics, and cisplatin (CDDP), a commonly selected anticancer drug for treating head and neck malignancies, were used as the positive controls.
Human oral cancer Cal27 cells were seeded in 96-well plates and incubated overnight in 180 μL of medium containing 10% Fetal Bovine Serum (Gibco, San Francisco, CA, USA). […] Then, 10 μL of 5 mg/mL MTT solution was added to each well and incubated at 37 °C for 4 h. After 4 h of incubation at 37 °C, the MTT-containing medium was removed and DMSO was added to each well and the absorbance at 570 nm and 630 nm was measured using a microplate reader (CYTATION 3, Burton, Westwood, NJ, USA). Survival/% = (mean OD of experimental group/mean OD of control group) × 100%. Each test was repeated at least three times.

Cal27 cells [1] = assay: Colony formation assay; assay type: cell-based, human; details: Cal27, tested 0.5, 1, 1.5 μM
Procedure: The colony formation assay was used to evaluate the antiproliferative effect of compound 7be on Cal27 cells. Cal27 cells were grown in 6-well plates at a density of 700 cells per well and then treated with different concentrations of compound 7be for 48 h. The treatment medium was removed and fresh medium was added. After 2 weeks of culture, cells were fixed with 4% paraformaldehyde for 8 min and stained with crystal violet solution (10%). Finally, they were imaged with a camera.

Cal27 cells [2] = assay: Cell cycle analysis by flow cytometry; assay type: cell-based, human; details: Cal27, 4 μM, 24 h
Procedure: Cal27 cells were treated with compound 7be for 24 h. Next, Cal27 cells were collected and suspended in ice ethanol at 4 °C for at least 24 h. Subsequently, Cal27 cells were incubated in RNase A and PI staining solution at 37 °C, protected from light, for 0.5 h. Finally, cells were detected by flow cytometry.

Cal27 cells [3] = assay: MTT cell survival with autophagy inhibitor CQ; assay type: cell-based, human; details: Cal27, 20 μM CQ and different concentrations of 7be
Procedure: Meanwhile, to further confirm that compound 7be could induce autophagic death in Cal27 cells, we used a classical autophagy inhibitor, chloroquine (CQ), to evaluate the role of autophagy in compound 7be-mix-induced cell death.
Human oral cancer Cal27 cells were seeded in 96-well plates and incubated overnight in 180 μL of medium containing 10% Fetal Bovine Serum (Gibco, San Francisco, CA, USA). On the following day, compounds at final concentrations of 2.5, 5, 10 and 20 μM were added to each well and incubated for 48 h. Then, 10 μL of 5 mg/mL MTT solution was added to each well and incubated at 37 °C for 4 h. After 4 h of incubation at 37 °C, the MTT-containing medium was removed and DMSO was added to each well and the absorbance at 570 nm and 630 nm was measured using a microplate reader (CYTATION 3, Burton, Westwood, NJ, USA). Survival/% = (mean OD of experimental group/mean OD of control group) × 100%. Each test was repeated at least three times.

[4] = system: human oral cancer Cal27 xenograft tumor; assay: In vivo antitumor activity, Cal27 xenograft; design: species or system BALB/c nude mice; details: for relative tumor proliferation rate / tumor suppression rate / tumor growth inhibition (TGI): 21 days
Procedure: Nude mouse organ and tumor tissues fixed with neutral formalin solution were paraffin-embedded according to the conventional processing method. Sections were cut to a thickness of approximately 5 μm, placed on glass slides and dewaxed in an oven at 60 °C, stained for H&E and immunohistochemistry and finally visualized with the Cytation 5 imaging system.
For this assay, 130 SPF-grade BALB/c mice (female, 4–6 weeks old, 18–20 g) were obtained from Chang Zhou Cavens Laboratory Animal Ltd. (Changzhou, China). The in vivo activity experiments were commissioned by Nanjing OG Pharmaceuticals, Co., Ltd. (Nanjing, China) All mice were housed in plastic cages, fed, and watered under standard conditions and air filtration (22 ± 2 °C; 12 h light/dark cycles). Under aseptic conditions, human oral cancer Cal27 cells were inoculated subcutaneously in the right axilla of BALB/c nude mice. When the tumors had grown to about 85 mm^3, 24 […] mice with good growth status and good homogeneity of tumor size were selected and randomly divided into the following four groups of six mice each: (1) the model group; (2) the low-dose group; (3) the high-dose group; and (4) the positive drug group. The drug dose in the low-dose group was 10 mg/kg, which was injected intraperitoneally once every other day, for the duration of 21 days of administration; the drug dose in the high-dose group was 20 mg/kg, which was injected intraperitoneally once every other day, for the duration of 21 days of administration; and the drug dose in the cisplatin group was 2 mg/kg, which was injected intraperitoneally once every other day, for the duration of 21 days of administration. Normal tissues of the heart, liver, spleen, lung and kidney and half of the tumor tissues were fixed with 4% formalin solution and embedded in paraffin for histological analysis; the other half of the tumor tissues were preserved in liquid nitrogen, and the supernatant was extracted after milling the tissues and detected by Western blot.

[5] = 10 mg/kg i.p. once every other day
[6] = 20 mg/kg i.p. once every other day

IC50 (NCI-H460): 2.92 ± 0.56 µM
IC50 (A549): 3.32 ± 1.9 µM
SMILES: Cc1cc(C)c2c(n1)S(=O)(=O)c1c-2nc(NCCN2CCCCC2)c2ccccc12 [7be, 7,9-Dimethyl-5-((2-(piperidin-1-yl)ethyl)amino) pyrido[3′,2′:4,5]thieno[3,2-c]isoquinoline 11,11-dioxide]
IC50 (Cal27): 1.12 ± 0.22 µM
IC50 (SV-HUC-1): 5.18 ± 1.77 µM
concentration completely suppressing colony formation ability (Cal27 cells [1]): 1.5 µM
cells in S (Cal27 cells [2]): 54.06%
cell survival rate of combined treatment with 20 μM CQ (Cal27 cells [3]): higher than that of the group treated with compound 7be alone
relative tumor proliferation rate [4, 5]: 52.0%
tumor suppression rate / tumor growth inhibition (TGI) [4, 5]: 48.53% and 48.5%
relative tumor proliferation rate [4, 6]: 34.1%
tumor suppression rate / tumor growth inhibition (TGI) [4, 6]: 64.7% and 64.73%
expressions of p62, COX-2 and Bcl-2 in tumor tissue ([4]; 20 mg/kg, Western blot of tumor tissue): decreased
percentage of Ki67-positive cells in tumor tissue ([4]; Ki67 immunostaining): decreased
